# Measurements: the NIST ThermoML archive (doi:10.1016/j.jct.2011.12.001)
# Values joined by “and” are separate entries in the source; they are usually repeats but may differ in a detail not shown here. Identical values can stand only once. Numbers after ± are expanded uncertainties.
# Experiments:
# [1] = molar enthalpy of transition or fusion; settings: drop calorimetry
# [2] = molar enthalpy of vaporization or sublimation; settings: 298.15 K; Liquid; drop calorimetry
# [3] = Crystal, Calculated from knudsen effusion weight loss
SMILES,"molar enthalpy of transition or fusion ([1]; 324.2 K, Liquid) [kcal/mol]",molar enthalpy [2] [kcal/mol],vapor or sublimation pressure ([3]; 271.17 K),vapor or sublimation pressure ([3]; 273.17 K),vapor or sublimation pressure ([3]; 275.13 K),vapor or sublimation pressure ([3]; 277.16 K),vapor or sublimation pressure ([3]; 279.06 K),vapor or sublimation pressure ([3]; 281.16 K),vapor or sublimation pressure ([3]; 283.17 K),vapor or sublimation pressure ([3]; 285.14 K),vapor or sublimation pressure ([3]; 287.14 K),"molar enthalpy of transition or fusion ([1]; 349.4 K, Crystal) [kcal/mol]"
COc1ccccc1I [1-iodo-2-methoxybenzene],16.52 ± 0.0956,15.6 ± 0.669,–,–,–,–,–,–,–,–,–,–
COc1ccc(I)cc1 [1-iodo-4-methoxybenzene],–,19.7 ± 0.717,0.000123 ± 2e-05 kPa and 0.00012 ± 2e-05 kPa and 0.000116 ± 2e-05 kPa,0.000161 ± 2.1e-05 kPa and 0.000156 ± 2.1e-05 kPa and 0.000153 ± 2.1e-05 kPa,0.000213 ± 2.1e-05 kPa and 0.000211 ± 2.1e-05 kPa and 0.000196 ± 2.1e-05 kPa,0.000267 ± 2.2e-05 kPa and 0.000258 ± 2.2e-05 kPa and 0.000279 ± 2.2e-05 kPa,0.00035 ± 2e-05 kPa and 0.000334 ± 2.3e-05 kPa and 0.000332 ± 2.3e-05 kPa,0.000463 ± 2.6e-05 kPa and 0.000446 ± 2.6e-05 kPa and 0.000429 ± 2.5e-05 kPa,0.000606 ± 2.9e-05 kPa and 0.000571 ± 2.8e-05 kPa and 0.000555 ± 2.8e-05 kPa,0.000749 ± 3.3e-05 kPa and 0.000718 ± 3.2e-05 kPa,0.000979 ± 4e-05 kPa and 0.000924 ± 3.8e-05 kPa and 0.000923 ± 3.8e-05 kPa,21.61 ± 0.143
COc1cccc(I)c1 [3-iodoanisole],15.85 ± 0.0478,14.9 ± 0.621,–,–,–,–,–,–,–,–,–,–
